Laboratory results reported in patent publication US12714677B2, “Dual chamber syringe for administering a hormone encapsulated by a hydrogel” (VITALTE LIFESCIENCES INC., priority 2024, dated 2026).

Tests used:
[1] = cited from earlier work
[2] = E2 release from hydrogel discs, E2 pellets and E2 powder into incubation medium (ELISA); type: physicochemical; conditions: 50 mL incubation medium, 37° C., 6 rpm
Text: (§1) Low standards were removed from the analysis.

[3] = Release assay on E2 microspheres (same manner as discs); type: physicochemical; conditions: day 3
Protocol: Release assays on the E2 microspheres were conducted in the same manner as described above for the discs.
as §1

Structure (SMILES)	solubility factor in water compared to E2 [1]	E2 released into incubation media (concentration) ([2]; day 1 / 24 hours)	E2 released into incubation media (concentration) ([2]; day 2 / 48 hours)	E2 released into incubation media (accumulated concentration) ([2]; day 3 / 72 hours)	E2 release level [3]
C[C@]12CC[C@H]3[C@@H](CCC4=CC(=O)CC[C@@]43C)[C@@H]1CC[C@@H]2O [T, Testosterone]	much higher	–	–	–	–
C[C@]12CC[C@@H]3c4ccc(O)cc4CC[C@H]3[C@@H]1CC[C@@H]2O [E2 powder, Beta-estradiol]	–	about 1.85 mg/L	reached the saturation point of the incubation media	maintained the saturation point concentration	approximates the saturation level of E2 in the incubation medium
